{"source": "patent US5478723A", "about": "“Method and apparatus for determining the role of cytochrome P450 and related enzymes in the metabolism of drugs and other chemicals” (priority 1993, dated 1995)", "key": {"[1]": {"test_system": "cytochrome P450", "conditions": "in vivo; cited from earlier work"}, "[2]": {"test_system": "labor at term", "test": "Clinical trials of sparteine for inducing labor at term", "type": "in vivo, human", "conditions": "of all Caucasians; expected from CYP2D6 deficiency", "procedure": "The drug was not recommended for clinical use because these side effects were unpredictable and occurred at doses of […], which were well tolerated by other patients."}, "[3]": {"test_system": "labor at term", "conditions": "cited from earlier work"}, "[4]": {"test_system": "CYP2D6 enzyme", "conditions": "background or known; cited from earlier work"}, "[5]": {"test_system": "CYP1A2 enzyme", "conditions": "known; cited from earlier work"}, "[6]": {"test_system": "liver", "conditions": "in vivo; cited from earlier work"}, "[7]": {"test_system": "CYP2D6", "conditions": "cited from earlier work"}, "[8]": {"test_system": "CYP2CMp", "conditions": "in vivo; cited from earlier work"}, "[9]": {"conditions": "administered with ketoconazole or erythromycin; cited from earlier work"}, "[10]": {"test_system": "CYP2A6 enzyme", "conditions": "cited from earlier work"}, "[11]": {"test_system": "CYP3A enzymes", "conditions": "cited from earlier work"}}, "note": "“Also recorded” adds a separate entry of the source.", "data": [{"smiles": "CN/C(=N/CCSCc1nc[nH]c1C)NC#N", "note": "[cimetidine]", "values": [{"measurement": "effect on cytochrome P450 activity", "setting": "[1]", "value": "depresses P450 activity"}]}, {"smiles": "C1CCN2C[C@@H]3C[C@@H](CN4CCCC[C@@H]34)[C@H]2C1", "note": "[sparteine]", "values": [{"measurement": "expected poor metabolizers", "setting": "[2]", "value": "5-10%"}, {"measurement": "potency for inducing labor at term", "setting": "[3]; clinical trials, United States, late 1950's", "value": "as potent as oxytocin"}, {"measurement": "patients with dramatically increased duration and intensity of action", "setting": "[3]; of all patients tested", "value": "about 7%"}, {"measurement": "patients with exaggerated response", "setting": "[3]; patients administered during clinical trials", "value": 7, "unit": "%"}, {"measurement": "side effects (exaggerated response)", "setting": "[3]; some patients", "value": "prolonged uterine contraction and abnormally rapid labor; also recorded: caused death of the fetus"}]}, {"smiles": "COc1ccc2c(c1)[C@]13CCCC[C@@H]1[C@H](C2)N(C)CC3", "note": "(stereo in doubt) [dextromethorphan]", "values": [{"measurement": "enzyme which metabolizes the drug", "setting": "[4]", "value": "metabolized by the CYP2D6 enzyme"}]}, {"smiles": "Cn1c(=O)c2c(ncn2C)n(C)c1=O", "note": "[caffeine]", "values": [{"measurement": "enzyme which metabolizes the drug", "setting": "[5]", "value": "metabolized by the CYP1A2 enzyme"}]}, {"smiles": "CC(=O)Nc1ccc(O)cc1", "note": "[acetaminophen]", "values": [{"measurement": "origin of liver toxicity", "setting": "[6]", "value": "due to a toxic metabolite that is generated by cytochrome P450"}]}, {"smiles": "N=C(N)N1CCc2ccccc2C1", "note": "[debrisoquine]", "values": [{"measurement": "poor metabolizers among Caucasians", "setting": "[7]; Caucasians", "value": "5-10%"}, {"measurement": "enzyme which metabolizes the drug", "setting": "[7]; in vivo", "value": "metabolized by CYP2D6"}]}, {"smiles": "CCC1(c2ccccc2)NC(=O)N(C)C1=O", "note": "(stereo not drawn) [Mephenytoin]", "values": [{"measurement": "enzyme which metabolizes the drug", "setting": "[8]", "value": "metabolized by CYP2CMp"}]}, {"smiles": "CC[C@@]1(c2ccccc2)NC(=O)N(C)C1=O", "note": "[S-mephenytoin]", "values": [{"measurement": "poor metabolizers among Caucasians", "setting": "[8]", "value": "less than 5%"}, {"measurement": "poor metabolizers among Japanese subjects", "setting": "[8]", "value": "about 20%"}]}, {"smiles": "CC(C)(C)c1ccc(C(O)CCCN2CCC(C(O)(c3ccccc3)c3ccccc3)CC2)cc1", "note": "(stereo not drawn) [terfenadine]", "values": [{"measurement": "cardiac adverse reaction", "setting": "[9]", "value": "Torsades de Points"}]}, {"smiles": "CCC1(c2ccccc2)C(=O)NC(=O)NC1=O", "note": "[phenobarbital]", "values": [{"measurement": "effect on cytochrome P450 activity", "setting": "[1]", "value": "increase cytochrome P450 activity"}, {"measurement": "effect on metabolism of contraceptive steroids", "setting": "[1]", "value": "increased rate of metabolism of contraceptive steroids"}]}, {"smiles": "O=c1ccc2ccccc2o1", "note": "[coumarin]", "values": [{"measurement": "enzyme which metabolizes the drug", "setting": "[10]", "value": "metabolized by the CYP2A6 enzyme"}]}, {"smiles": "CO[C@H]1/C=C/O[C@@]2(C)Oc3c(C)c(O)c4c(O)c(c(/C=N/N5CCN(C)CC5)c(O)c4c3C2=O)NC(=O)/C(C)=C\\C=C\\[C@H](C)[C@H](O)[C@@H](C)[C@@H](O)[C@@H](C)[C@H](OC(C)=O)[C@@H]1C", "note": "[rifampin]", "values": [{"measurement": "effect on cytochrome P450 activity", "setting": "[1]", "value": "increase cytochrome P450 activity"}, {"measurement": "effect on metabolism of contraceptive steroids", "setting": "[1]", "value": "increased rate of metabolism of contraceptive steroids"}]}, {"smiles": "CC(=O)N1CCN(c2ccc(OCC3COC(Cn4ccnc4)(c4ccc(Cl)cc4Cl)O3)cc2)CC1", "note": "(stereo not drawn) [ketoconazole]", "values": [{"measurement": "inhibition of CYP3A enzymes", "setting": "[11]", "value": "potent inhibitors of the CYP3A enzymes"}]}]}
